Laboratory results: US10633419B2, “Immunomodulators” (BRISTOL-MYERS SQUIBB COMPANY, priority 2014, dated 2020)
Starred links: 1 amine or outer side, 2 acyl side, 3 side chain; linkers in the order of their positions; H or OH if unused. Positions of bridges follow the written chain, without caps; N, C: chain ends. Non-standard residues stand in square brackets, D forms with d. Residues, ends and D or L forms follow the SMILES beside them. Groups on a side chain read outwards from the residue. *: point of attachment. Dap(Nα-HOOC(CH2)16CO)OH = O=C(O)CCCCCCCCCCCCCCCCC(=O)N[C@@H](CN*)C(=O)O; X6 = O=C(O)CCCCCCCCCCCCCCCCC(=O)N[C@@H](CCC(=O)NCCCOCCOCCOCCCN*)C(=O)O; X18 = O=C(O)CCCCCCCCCCCCCCC(=O)N[C@@H](CC(=O)NCCCOCCOCCOCCCN*)C(=O)O; Trp(1-CH2COOH) = N[C@@H](Cc1cn(CC(=O)O)c2ccccc12)C(=O)O; X9 = O=C(O)CCCCCCCCCCCCCCCCC(=O)N[C@@H](CCN*)C(=O)O; C18 diacid = O=C(O)CCCCCCCCCCCCCCCCC(=O)*; Phe(4-F) = N[C@@H](Cc1ccc(F)cc1)C(=O)O; γGlu = O=C(O)[C@H](CCC(=O)[*:2])N[*:1]; βAsp = O=C(O)[C@H](CC(=O)[*:2])N[*:1]; X19 = O=C(C1C[C@H](O)CN1[*:1])[*:2]; PEG6 = NCCOCCOCCOCCOCCOCCOCCC(=O)O; Palmitoyl = CCCCCCCCCCCCCCCC(=O)*; Hyp = O=C(O)[C@@H]1C[C@@H](O)CN1; Myristoyl = CCCCCCCCCCCCCC(=O)*; NMeNle = CCCC[C@H](NC)C(=O)O; Pip = O=C(O)[C@@H]1CCCCN1; NMeA = CN[C@@H](C)C(=O)O; Pra = C#CC[C@H](N)C(=O)O; Dab = NCC[C@H](N)C(=O)O; Dap = NC[C@H](N)C(=O)O; PEG2 = NCCOCCOCCC(=O)O

biological target: T1, PD-L1 (Homo sapiens, UniProt Q9NZQ7); test: PD-1/PD-L1 Homogenous Time-Resolved Fluorescence (HTRF) binding assay (PD-1-Ig/PD-L1-His); settings: inhibition of PD-1-Ig binding to PD-L1-TVMV-His; value given as number; read-out: HTRF IC50
T1 construct: hPDL1(19-239)-TVMV-His; made in house; host or cells: HEK293T
Outline: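 Inhibitors pre-incubated 15 min with PD-L1-His (10 nM final), then PD-1-Ig (20 nM final) added for 15 min in dPBS/0.1% BSA/0.05% Tween-20. Eu-cryptate anti-Ig (1 nM) and APC anti-His (20 nM) added, 30 min equilibration, 665/620 nm HTRF ratio read.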

T1 sequence (Q9NZQ7 with tags, fused parts or gaps): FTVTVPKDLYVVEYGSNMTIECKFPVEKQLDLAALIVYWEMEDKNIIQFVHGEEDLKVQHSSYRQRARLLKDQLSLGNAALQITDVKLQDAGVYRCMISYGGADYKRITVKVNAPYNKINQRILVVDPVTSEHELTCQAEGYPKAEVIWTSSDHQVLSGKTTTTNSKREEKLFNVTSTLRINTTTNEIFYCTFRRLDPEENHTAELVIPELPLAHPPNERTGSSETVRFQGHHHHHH

IC50 [nM]	SMILES
259	CCCCCCCCCCCCCC(=O)NCCCC[C@H](NC(=O)[C@H](CC(=O)O)NC(=O)CCOCCOCCOCCOCCOCCOCCNC(=O)[C@H](CC(=O)O)NC(=O)CNC(=O)[C@@H]1CSCC(=O)N[C@@H](Cc2ccc(O)cc2)C(=O)N(C)[C@@H](C)C(=O)N[C@@H](CC(=O)O)C(=O)N2CCC[C@H]2C(=O)N[C@@H](Cc2cnc[nH]2)C(=O)N[C@@H](CC(C)C)C(=O)N2C[C@H](O)C[C@H]2C(=O)N[C@@H](Cc2c[nH]c3ccccc23)C(=O)N[C@@H](CO)C(=O)N[C@@H](Cc2c[nH]c3ccccc23)C(=O)N(C)[C@@H](CCCC)C(=O)N(C)[C@@H](CCCC)C(=O)N[C@@H](CCCNC(=N)N)C(=O)N1)C(N)=O [Example 11017] ({CH2CO}-Y[NMeA]DPHL[Hyp]WSW[NMeNle][NMeNle]RCGD[PEG6]DK(Myristoyl)-NH2; thioether N-14)

same assay, conditions: inhibition of PD-1-Ig binding to PD-L1-TVMV-His; value given as range class; read-out: HTRF IC50

SMILES	IC50 [nM]
CCCCCCCCCCCCCC(=O)N[C@@H](CCC(=O)NCCCC[C@H](NC(=O)CNC(=O)CNC(=O)CNC(=O)[C@@H]1CSCC(=O)N[C@@H](Cc2ccc(O)cc2)C(=O)N(C)[C@@H](C)C(=O)N[C@@H](CC(N)=O)C(=O)N2CCC[C@H]2C(=O)N[C@@H](Cc2cnc[nH]2)C(=O)N[C@@H](CC(C)C)C(=O)N2C[C@H](O)C[C@H]2C(=O)N[C@@H](Cc2c[nH]c3ccccc23)C(=O)N[C@@H](CO)C(=O)N[C@@H](Cc2c[nH]c3ccccc23)C(=O)N(C)[C@@H](CCCC)C(=O)N(C)[C@@H](CCCC)C(=O)N[C@@H](CCCNC(=N)N)C(=O)N1)C(N)=O)C(=O)O [Example 11116] ({CH2CO}-Y[NMeA]NPHL[Hyp]WSW[NMeNle][NMeNle]RCGGGK([γGlu-Myristoyl])-NH2; thioether N-14)	10 to 99
CCCC[C@H]1C(=O)N(C)[C@@H](CCCC)C(=O)N[C@@H](CC(C)C)C(=O)N[C@H](C(=O)NCC(=O)N[C@@H](CNC(=O)CC[C@H](NC(=O)CCCCCCCCCCCCCCCCC(=O)O)C(=O)O)C(=O)O)CSCC(=O)N[C@@H](Cc2ccc(O)cc2)C(=O)N(C)[C@@H](C)C(=O)N[C@@H](CC(N)=O)C(=O)N2CCC[C@H]2C(=O)N[C@@H](CN)C(=O)N[C@@H](CC(C)C)C(=O)N2C[C@H](O)C[C@H]2C(=O)N[C@@H](Cc2c[nH]c3ccccc23)C(=O)N[C@@H](CCN)C(=O)N[C@@H](Cc2cn(CC(=O)O)c3ccccc23)C(=O)N1C [Example 13153] ({CH2CO}-Y[NMeA]NP[Dap]L[Hyp]W[Dab][Trp(1-CH2COOH)][NMeNle][NMeNle]LCG[Dap]([γGlu-C18 diacid])-OH; thioether N-14)	0.3 to 9.9
CCCC[C@H]1C(=O)N(C)[C@@H](CCCC)C(=O)N[C@@H](CC(C)C)C(=O)N[C@@H](C(=O)N[C@@H](CC(=O)O)C(=O)N[C@@H](CCC(=O)NCCCOCCOCCOCCCNC(=O)C[C@H](NC(=O)CCCCCCCCCCCCCCC(=O)O)C(=O)O)C(=O)O)CSCC(=O)N[C@@H](Cc2ccc(O)cc2)C(=O)N(C)[C@@H](C)C(=O)N[C@@H](CC(N)=O)C(=O)N2CCC[C@@H]2C(=O)N[C@@H](CN)C(=O)N[C@@H](CC(C)C)C(=O)N2C[C@@H](O)CC2C(=O)N[C@@H](Cc2c[nH]c3ccccc23)C(=O)N[C@@H](CCN)C(=O)N[C@@H](Cc2cn(CC(=O)O)c3ccccc23)C(=O)N1C (stereo partly drawn) [Example 11245] ({CH2CO}-Y[NMeA]N[dP][Dap]L[X19]W[Dab][Trp(1-CH2COOH)][NMeNle][NMeNle]L[dC]DE(X18)-OH; thioether N-14)	10 to 99
CCCC[C@H]1C(=O)N(C)[C@@H](CCCC)C(=O)N[C@@H](CC(C)C)C(=O)N[C@H](C(=O)NCC(=O)N[C@@H](CC(=O)NCC[C@H](NC(=O)CCCCCCCCCCCCCCCCC(=O)O)C(=O)O)C(=O)O)CSCC(=O)N[C@@H](Cc2ccc(OC)cc2)C(=O)N2CCCC[C@H]2C(=O)N[C@@H](CC(=O)O)C(=O)N2CCC[C@H]2C(=O)N[C@@H](Cc2c[nH]cn2)C(=O)N[C@@H](CCC(N)=O)C(=O)N2C[C@H](O)C[C@H]2C(=O)N[C@@H](Cc2c[nH]c3ccccc23)C(=O)N[C@@H](CCN)C(=O)N[C@@H](Cc2cn(CC(=O)O)c3ccccc23)C(=O)N1C [Example 13157] ({CH2CO}-Y(Me)[Pip]DPHQ[Hyp]W[Dab][Trp(1-CH2COOH)][NMeNle][NMeNle]LCGD(X9)-OH; thioether N-14)	0.3 to 9.9
CCCC[C@H]1C(=O)N(C)[C@@H](CCCC)C(=O)N[C@@H](CC(C)C)C(=O)N[C@H](C(=O)NCC(=O)N[C@@H](CC(=O)NCCOCCOCCC(=O)NCC[C@H](NC(=O)CCCCCCCCCCCCCCCCC(=O)O)C(=O)O)C(=O)O)CSCC(=O)N[C@@H](Cc2ccc(O)cc2)C(=O)N2CCCC[C@H]2C(=O)N[C@@H](CC(N)=O)C(=O)N2CCC[C@H]2C(=O)N[C@@H](CN)C(=O)N[C@@H](CC(C)C)C(=O)N2C[C@H](O)C[C@H]2C(=O)N[C@@H](Cc2c[nH]c3ccccc23)C(=O)N[C@@H](CCN)C(=O)N[C@@H](Cc2cn(CC(=O)O)c3ccccc23)C(=O)N1C [Example 13163] ({CH2CO}-Y[Pip]NP[Dap]L[Hyp]W[Dab][Trp(1-CH2COOH)][NMeNle][NMeNle]LCG[βAsp][PEG2]-X9; thioether N-14)	0.3 to 9.9

The remaining lines, values ahead:

IC50 [nM]	SMILES
100 to 1600	CCCC[C@H]1C(=O)N(C)[C@@H](CCCC)C(=O)N[C@@H](CC(C)C)C(=O)N[C@H](C(=O)NCC(=O)N[C@@H](CCC(=O)NCCCOCCOCCOCCCNC(=O)C[C@H](NC(=O)CCCCCCCCCCCCCCC(=O)O)C(=O)O)C(=O)O)CSCC(=O)N[C@@H](Cc2ccc(O)cc2)C(=O)N(C)[C@@H](C)C(=O)N[C@@H](CC(N)=O)C(=O)N2CCC[C@@H]2C(=O)N[C@@H](CN)C(=O)N[C@@H](CC(C)C)C(=O)N2C[C@@H](O)CC2C(=O)N[C@@H](Cc2c[nH]c3ccccc23)C(=O)N[C@@H](CCN)C(=O)N[C@@H](Cc2cn(CC(=O)O)c3ccccc23)C(=O)N1C (stereo partly drawn) [Example 11243] ({CH2CO}-Y[NMeA]N[dP][Dap]L[X19]W[Dab][Trp(1-CH2COOH)][NMeNle][NMeNle]LCGE(X18)-OH; thioether N-14)
10 to 99	CCCC[C@H]1C(=O)N(C)[C@@H](CCCC)C(=O)N[C@@H](CC(C)C)C(=O)N[C@H](C(=O)NCCOCCOCCOCCOCCOCCOCCC(=O)NC[C@H](NC(=O)CCCCCCCCCCCCCCCCC(=O)O)C(=O)O)CSCC(=O)N[C@@H](Cc2ccc(O)cc2)C(=O)N(C)[C@@H](C)C(=O)N[C@@H](CC(N)=O)C(=O)N2CCC[C@H]2C(=O)N[C@@H](CN)C(=O)N[C@@H](CC(C)C)C(=O)N2C[C@H](O)C[C@H]2C(=O)N[C@@H](Cc2c[nH]c3ccccc23)C(=O)N[C@@H](CCN)C(=O)N[C@@H](Cc2cn(CC(=O)O)c3ccccc23)C(=O)N1C [Example 11180] ({CH2CO}-Y[NMeA]NP[Dap]L[Hyp]W[Dab][Trp(1-CH2COOH)][NMeNle][NMeNle]LC[PEG6]-{Dap(Nα-HOOC(CH2)16CO)OH}; thioether N-14)
0.3 to 9.9	CCCC[C@H]1C(=O)N(C)[C@@H](CCCC)C(=O)N[C@@H](CC(C)C)C(=O)N[C@H](C(=O)NCC(=O)N[C@@H](CC(=O)O)C(=O)NCCCOCCOCCOCCCNC(=O)CC[C@H](NC(=O)CCCCCCCCCCCCCCCCC(=O)O)C(=O)O)CSCC(=O)N[C@@H](Cc2ccc(F)cc2)C(=O)N2CCCC[C@H]2C(=O)N[C@@H](CC(=O)O)C(=O)N2CCC[C@H]2C(=O)N[C@@H](CN)C(=O)N[C@@H](CCC(=O)O)C(=O)N2C[C@H](O)C[C@H]2C(=O)N[C@@H](Cc2c[nH]c3ccccc23)C(=O)N[C@@H](CCN)C(=O)N[C@@H](Cc2cn(CC(=O)O)c3ccccc23)C(=O)N1C [Example 11264] ({CH2CO}-[Phe(4-F)][Pip]DP[Dap]E[Hyp]W[Dab][Trp(1-CH2COOH)][NMeNle][NMeNle]LCGD-X6; thioether N-14)
10 to 99	C#CC[C@H](NC(=O)CNC(=O)[C@@H]1CSCC(=O)N[C@@H](Cc2ccc(O)cc2)C(=O)N(C)[C@@H](C)C(=O)N[C@@H](CC(N)=O)C(=O)N2CCC[C@H]2C(=O)N[C@@H](CN)C(=O)N[C@@H](CC(C)C)C(=O)N2C[C@H](O)C[C@H]2C(=O)N[C@@H](Cc2c[nH]c3ccccc23)C(=O)N[C@@H](CO)C(=O)N[C@@H](Cc2cn(CC(=O)O)c3ccccc23)C(=O)N(C)[C@@H](CCCC)C(=O)N(C)[C@@H](CCCC)C(=O)N[C@@H](CC(C)C)C(=O)N1)C(N)=O [INT 1300X] ({CH2CO}-Y[NMeA]NP[Dap]L[Hyp]WS[Trp(1-CH2COOH)][NMeNle][NMeNle]LCG[Pra]-NH2; thioether N-14)
100 to 1600	CCCCCCCCCCCCCCCC(=O)NCCCC[C@H](NC(=O)CNC(=O)[C@H](CO)NC(=O)CNC(=O)[C@H](CO)NC(=O)CNC(=O)[C@@H]1CSCC(=O)N[C@@H](Cc2ccc(O)cc2)C(=O)N(C)[C@@H](C)C(=O)N[C@@H](CC(N)=O)C(=O)N2CCC[C@H]2C(=O)N[C@@H](CCN)C(=O)N[C@@H](CC(C)C)C(=O)N2C[C@H](O)C[C@H]2C(=O)N[C@@H](Cc2c[nH]c3ccccc23)C(=O)N[C@@H](CO)C(=O)N[C@@H](Cc2c[nH]c3ccccc23)C(=O)N(C)[C@@H](CCCC)C(=O)N(C)[C@@H](CCCC)C(=O)N[C@@H](CCCNC(=N)N)C(=O)N1)C(N)=O [Example 11021] ({CH2CO}-Y[NMeA]NP[Dab]L[Hyp]WSW[NMeNle][NMeNle]RCGSGSGK(Palmitoyl)-NH2; thioether N-14)
100 to 1600	CCCCCCCCCCCCCCCC(=O)NCCCC[C@H](NC(=O)[C@H](CO)NC(=O)CNC(=O)CNC(=O)CNC(=O)CNC(=O)[C@@H]1CSCC(=O)N[C@@H](Cc2ccc(O)cc2)C(=O)N(C)[C@@H](C)C(=O)N[C@@H](CC(N)=O)C(=O)N2CCC[C@H]2C(=O)N[C@@H](CCN)C(=O)N[C@@H](CC(C)C)C(=O)N2C[C@H](O)C[C@H]2C(=O)N[C@@H](Cc2c[nH]c3ccccc23)C(=O)N[C@@H](CO)C(=O)N[C@@H](Cc2c[nH]c3ccccc23)C(=O)N(C)[C@@H](CCCC)C(=O)N(C)[C@@H](CCCC)C(=O)N[C@@H](CCCNC(=N)N)C(=O)N1)C(N)=O [Example 11022] ({CH2CO}-Y[NMeA]NP[Dab]L[Hyp]WSW[NMeNle][NMeNle]RCGGGGSK(Palmitoyl)-NH2; thioether N-14)
